According to patent US6414147B1, “2-amino-9-alkylpurines: GABA brain receptor ligands” (Neurogen Corporation, priority 1998, dated 2002):

Row | SMILES | melting point [°C]
1 | CCCCn1cnc2c(OCc3ccccn3)nc(Nc3ccccc3)nc21 [compound 15, 2-(Phenylamino)-6-(pyrid-2-ylmethoxy)-9-butyl-9H-purine] | 136 to 138
2 | CCCCn1cnc2c(OCC)nc(Nc3ccc(Cl)cc3)nc21 [compound 43, 2-[(4-Chlorophenyl)amino]-6-ethoxy-9-butyl-9H-purine] | 164
3 | CCCCn1cnc2c(OC)nc(Nc3ccc(OC)nc3)nc21 [compound 55, 2-[(2-Methoxypyrid-5-yl)amino]-6-methoxy-9-butyl-9H-purine] | 171 to 172
4 | CCCCn1cnc2c(OC)nc(Nc3ccc(OCC)cc3)nc21 [compound 40, 2-[(4-Ethoxyphenyl)amino]-6-methoxy-9-butyl-9H-purine] | 171 to 172
5 | CCCCn1cnc2c(OCC(C)C)nc(Nc3ccc(OC)nc3)nc21 [compound 60, 2-[(2-Methoxypyrid-5-yl)amino]-6-(2-methylprop-1-oxy)-9-butyl-9H-purine] | 88 to 90
6 | CCCCn1cnc2c(OC)nc(Nc3ccccc3OCC)nc21 [compound 45, 2-[(2-Ethoxyphenyl)amino]-6-methoxy-9-butyl-9H-purine] | 77 to 79
7 | CCCCCn1cnc2c(OCC)nc(Nc3ccccc3)nc21 [compound 22, 2-(Phenylamino)-6-ethoxy-9-pentyl-9H-purine] | 174 to 176
8 | CCCCn1cnc2c(OCCOC)nc(Nc3ccc(F)cc3)nc21 [compound 28, 2-[(4-Fluorophenyl)amino]-6-(2-methoxyethoxy)-9-butyl-9h-purine] | 165 to 166
9 | CCCCn1cnc2c(OCCOC(C)C)nc(Nc3ccc(F)cc3)nc21 [compound 29, 2-[(4-Fluorophenyl)amino]-6-(2-isopropoxyethoxy)-9-butyl-9H-purine] | 116 to 118
10 | CCCCn1cnc2c(OCCCOCC)nc(Nc3ccc(F)cc3)nc21 [compound 31, 2-[(4-Fluorophenyl)amino]-6-(3-ethoxyprop-1-oxy)-9-butyl-9H-purine] | 95 to 97
11 | CCCCn1cnc2c(OCCOC)nc(Nc3ccc(OC)nc3)nc21 [compound 57, 2-[(2-Methoxypyrid-5-yl)amino]-6-(2-methoxyethoxy)-9-butyl-9H-purine] | 138 to 140
12 | CCCCn1cnc2c(OCc3ccccn3)nc(Nc3ccc(OC)nc3)nc21 [compound 63, 2-[(2-Methoxypyrid-5-yl)amino]-6-(pyrid-2-ylmethoxy)-9-butyl-9H-purine] | 150 to 153

More lines, now with the values ahead:

Row | melting point [°C] | SMILES
13 | 186 to 188 | CCCCn1cnc2c(OCC)nc(Nc3cnc4ccccc4c3)nc21 [compound 86, 2-[(Quinolin-3-yl)amino]-6-ethoxy-9-butyl-9H-purine]
14 | 181 to 183 | CCCCn1cnc2c(OCCF)nc(Nc3cnc4ccccc4c3)nc21 [compound 93, 2-[(Quinolin-3-yl)amino]-6-(2-fluoroethoxy)-9-butyl-9H-purine]
15 | 146 to 148 | CCCCn1cnc2c(Oc3ccccc3)nc(Nc3ccc(OC)nc3)nc21 [compound 64, 2-[(2-Methoxypyrid-5-yl)amino]-6-phenoxy-9-butyl-9H-purine]
16 | 68 to 71 | CCCCn1cnc2c(OCC(C)C)nc(Nc3cnc4ccccc4c3)nc21 [compound 89, 2-[(Quinolin-3-yl)amino]-6-(2-methylprop-1-oxy)-9-butyl-9H-purine]
17 | 131 to 133 | C=C(C)COc1nc(Nc2ccc(OC)nc2)nc2c1ncn2CCCC [compound 67, 2-[(2-Methoxypyrid-5-yl)amino]-6-(2-methyl-2-propen-1-oxy)-9-butyl-9H-purine]
18 | 151 to 153 | C#CCOc1nc(Nc2ccc(OCC)nc2)nc2c1ncn2CCCC [compound 78, 2-[(2-Ethoxypyrid-5-yl)amino]-6-(2-propyn-1-oxy)-9-butyl-9H-purine]
19 | 129 to 130 | CCCCn1cnc2c(OCC)nc(NCc3ccc(OC)cc3)nc21 [compound 97, 2-[(4-Methoxybenzyl)amino]-6-ethoxy-9-butyl-9H-purine]
